Laboratory results: patent US9149038B2, “4-amino-6-(heterocyclic)picolinates and 6-amino-2-(heterocyclic)pyrimidine-4-carboxylates and their use as herbicides” (Dow AgroSciences LLC, priority 2013, dated 2015)
Read-outs that look alike come from different tables or passages of the source.

Tests used:
[1] = test system: Key Broadleaf Weed and Crop Species; test: Post-Emergent Test II: postemergent herbicidal activity, visual rating after 14 d (Table 7); format: in vivo; settings: post-emergence, 336 h; for pest or weed control at 35 g/ha: 35 g ai/ha; for pest or weed control at 70 g/ha: 70 g ai/ha; for pest or weed control at 140 g/ha: 140 g ai/ha
Text: (§1) Herbicidal evaluations were made visually on a scale of 0 to 100 where 0 represents no activity and 100 represents complete plant death.
(§2) Seeds or nutlets of the desired test plant species were planted in Sun Gro Metro-Mix® 360 planting mixture, which typically has a pH of 6.0 to 6.8 and an organic matter content of about 30 percent, in plastic pots with a surface area of 64 square centimeters (cm^2). When required to ensure good germination and healthy plants, a fungicide treatment and/or other chemical or physical treatment was applied. The plants were grown for 7-21 d in a greenhouse with an approximate 15 h photoperiod which was maintained at about 23-29° C. during the day and 22-28° C. during the night. Nutrients and water were added on a regular basis and supplemental lighting was provided with overhead metal halide 1000-Watt lamps as necessary. The plants were employed for testing when they reached the first or second true leaf stage.
(§3) A weighed amount, determined by the highest rate to be tested, of each test compound was placed in a 25 mL glass vial and was dissolved in 4 mL of a 97:3 v/v mixture of acetone and DMSO to obtain concentrated stock solutions. […] The concentrated stock solutions obtained were diluted with 20 mL of an aqueous mixture containing acetone, water, isopropyl alcohol, DMSO, Atplus 411F crop oil concentrate, and Triton® X-155 surfactant in a 48.5:39:10:1.5:1.0:0.02 v/v ratio to obtain spray solutions containing the highest application rates. Additional application rates were obtained by serial dilution of 12 mL of the high rate solution into a solution containing 2 mL of a 97:3 v/v mixture of acetone and DMSO and 10 mL of an aqueous mixture containing acetone, water, isopropyl alcohol, DMSO, Atplus 411F crop oil concentrate, and Triton X-155 surfactant in a 48.5:39:10:1.5:1.0:0.02 v/v ratio to obtain ½×, ¼×, ⅛× and 1/16× rates of the high rate. Compound requirements are based upon a 12 mL application volume at a rate of 187 liters per hectare (L/ha). Formulated compounds were applied to the plant material with an overhead Mandel track sprayer equipped with 8002E nozzles calibrated to deliver 187 L/ha over an application area of 0.503 square meters at a spray height of 18 inches (43 cm) above the average plant canopy height. Control plants were sprayed in the same manner with the solvent blank.
(§4) The treated plants and control plants were placed in a greenhouse as described above and watered by subirrigation to prevent wash-off of the test compounds. After 14 d, the condition of the test plants as compared with that of the untreated plants was determined visually and scored on a scale of 0 to 100 percent where 0 corresponds to no injury and 100 corresponds to complete kill and are presented as indicated in Table 4.

[2] = test system: Key Grass and Sedge Weeds as well as Grass Crops; test: Post-Emergent Test II: postemergent herbicidal activity, visual rating after 14 d (Table 8); format: in vivo; settings: post-emergence, 336 h; for pest or weed control at 35 g/ha: 35 g ai/ha; for pest or weed control at 70 g/ha: 70 g ai/ha; for pest or weed control at 140 g/ha: 140 g ai/ha
Text: as §1, §2, §3, §4

[3] = lambsquarters (Chenopodium album), read-out: Visual Growth Reduction (%) 14 Days After Application CHEAL
[4] = oilseed rape, canola (Brassica napus), read-out: Visual Growth Reduction (%) 14 Days After Application BRSNN
[5] = redroot pigweed (Amaranthus retroflexus), read-out: Visual Growth Reduction (%) 14 Days After Application AMARE
[6] = sunflower (Helianthus annuus), read-out: Visual Growth Reduction (%) 14 Days After Application HELAN
[7] = velvetleaf (Abutilon theophrasti), read-out: Visual Growth Reduction (%) 14 Days After Application ABUTH
[8] = wild poinsettia (Euphorbia heterophylla), read-out: Visual Growth Reduction (%) 14 Days After Application EPHHL
[9] = barnyardgrass (Echinochloa crus-galli), read-out: Visual Growth Reduction (%) 14 Days After Application ECHCG
[10] = maize, corn (Zea mays), read-out: Visual Growth Reduction (%) 14 Days After Application ZEAMX
[11] = rice (Oryza sativa), read-out: Visual Growth Reduction (%) 14 Days After Application ORYSA
[12] = wheat, spring (Triticum aestivum), read-out: Visual Growth Reduction (%) 14 Days After Application TRZAS
[13] = yellow nutsedge (Cyperus esculentus), read-out: Visual Growth Reduction (%) 14 Days After Application CYPES
[14] = giant foxtail (Setaria faberi), read-out: Visual Growth Reduction (%) 14 Days After Application SETFA

Row | SMILES | pest or weed control at 35 g/ha [1, 3] [%] | pest or weed control at 70 g/ha [1, 3] [%] | pest or weed control at 140 g/ha [1, 3] [%] | pest or weed control at 35 g/ha [1, 4] [%] | pest or weed control at 70 g/ha [1, 4] [%] | pest or weed control at 140 g/ha [1, 4] [%] | pest or weed control at 35 g/ha [1, 5] [%] | pest or weed control at 70 g/ha [1, 5] [%] | pest or weed control at 140 g/ha [1, 5] [%] | pest or weed control at 35 g/ha [1, 6] [%] | pest or weed control at 70 g/ha [1, 6] [%] | pest or weed control at 140 g/ha [1, 6] [%] | pest or weed control at 35 g/ha [1, 7] [%] | pest or weed control at 70 g/ha [1, 7] [%] | pest or weed control at 140 g/ha [1, 7] [%] | pest or weed control at 35 g/ha [1, 8] [%] | pest or weed control at 70 g/ha [1, 8] [%] | pest or weed control at 140 g/ha [1, 8] [%] | pest or weed control at 35 g/ha [2, 10] [%] | pest or weed control at 70 g/ha [2, 10] [%] | other results
1 | COC(=O)c1nc(-c2cc3c(cc2Cl)OC(F)(F)O3)cc(N)c1Cl [Compound 40] | 0 to 29 | 0 to 29 | 0 to 29 | 0 to 29 | 0 to 29 | 0 to 29 | 0 to 29 | 95 to 100 | 95 to 100 | 0 to 29 | 0 to 29 | 0 to 29 | 0 to 29 | 0 to 29 | 0 to 29 | 0 to 29 | 0 to 29 | 0 to 29 | 0 to 29 | 0 to 29 | pest or weed control at 35 g/ha [2, 9]: 0 to 29%; pest or weed control at 70 g/ha [2, 9]: 0 to 29%; pest or weed control at 140 g/ha [2, 9]: 0 to 29%; pest or weed control at 140 g/ha [2, 10]: 45 to 59%; pest or weed control at 35 g/ha [2, 11]: 0 to 29%; pest or weed control at 70 g/ha [2, 11]: 0 to 29%; pest or weed control at 140 g/ha [2, 11]: 0 to 29%; pest or weed control at 35 g/ha [2, 12]: 0 to 29%; pest or weed control at 70 g/ha [2, 12]: 0 to 29%; pest or weed control at 140 g/ha [2, 12]: 0 to 29%; pest or weed control at 35 g/ha [2, 13]: 0 to 29%; pest or weed control at 70 g/ha [2, 13]: 0 to 29%; pest or weed control at 140 g/ha [2, 13]: 0 to 29%
2 | Cc1c(-c2cc(N)c(Cl)c(C(=O)O)n2)ccc2c1OC(F)(F)O2 [Compound 36] | 0 to 29 | 45 to 59 | 45 to 59 | 0 to 29 | 30 to 44 | 45 to 59 | 95 to 100 | 95 to 100 | 95 to 100 | 75 to 84 | 75 to 84 | 85 to 94 | 0 to 29 | 0 to 29 | 0 to 29 | 0 to 29 | 0 to 29 | 0 to 29 | 0 to 29 | 0 to 29 | pest or weed control at 35 g/ha [2, 14]: 0 to 29%; pest or weed control at 70 g/ha [2, 14]: 30 to 44%; pest or weed control at 140 g/ha [2, 14]: 45 to 59%; pest or weed control at 140 g/ha [2, 10]: 0 to 29%; pest or weed control at 35 g/ha [2, 11]: 0 to 29%; pest or weed control at 70 g/ha [2, 11]: 0 to 29%; pest or weed control at 140 g/ha [2, 11]: 0 to 29%; pest or weed control at 35 g/ha [2, 12]: 0 to 29%; pest or weed control at 70 g/ha [2, 12]: 0 to 29%; pest or weed control at 140 g/ha [2, 12]: 0 to 29%; pest or weed control at 35 g/ha [2, 13]: 0 to 29%; pest or weed control at 70 g/ha [2, 13]: 0 to 29%; pest or weed control at 140 g/ha [2, 13]: 0 to 29%
3 | CN1CCc2cc(-c3nc(C(=O)O)c(Cl)c(N)c3F)ccc21 [Compound 108] | – | – | – | – | – | – | – | – | – | – | – | – | – | – | – | – | – | – | – | – | pest or weed control at 140 g/ha ([1]; ABUTH: velvetleaf (Abutilon theophrasti), read-out: Visual Growth Reduction (%) 14 Days After Application ABUTH): 0 to 29%; pest or weed control at 140 g/ha ([1]; AMARE: redroot pigweed (Amaranthus retroflexus), read-out: Visual Growth Reduction (%) 14 Days After Application AMARE): 0 to 29%; pest or weed control at 140 g/ha ([1]; BRSNN: oilseed rape, canola (Brassica napus), read-out: Visual Growth Reduction (%) 14 Days After Application BRSNN): 0 to 29%; pest or weed control at 140 g/ha ([1]; CHEAL: lambsquarters (Chenopodium album), read-out: Visual Growth Reduction (%) 14 Days After Application CHEAL): 60 to 74%; pest or weed control at 140 g/ha ([1]; EPHHL: wild poinsettia (Euphorbia heterophylla), read-out: Visual Growth Reduction (%) 14 Days After Application EPHHL): 0 to 29%; pest or weed control at 140 g/ha ([1]; HELAN: sunflower (Helianthus annuus), read-out: Visual Growth Reduction (%) 14 Days After Application HELAN): 60 to 74%; pest or weed control at 140 g/ha ([2]; barnyardgrass (Echinochloa crus-galli), read-out: Visual Growth Reduction (%) 14 Days After Application, ECHCG): 75 to 84%; pest or weed control at 140 g/ha ([2]; giant foxtail (Setaria faberi), read-out: Visual Growth Reduction (%) 14 Days After Application, SETFA): 0 to 29%; pest or weed control at 140 g/ha ([2]; maize, corn (Zea mays), read-out: Visual Growth Reduction (%) 14 Days After Application, ZEAMX): 0 to 29%; pest or weed control at 140 g/ha ([2]; rice (Oryza sativa), read-out: Visual Growth Reduction (%) 14 Days After Application, ORYSA): 0 to 29%; pest or weed control at 140 g/ha ([2]; wheat, spring (Triticum aestivum), read-out: Visual Growth Reduction (%) 14 Days After Application, TRZAS): 0 to 29%; pest or weed control at 140 g/ha ([2]; yellow nutsedge (Cyperus esculentus), read-out: Visual Growth Reduction (%) 14 Days After Application, CYPES): 0 to 29%
